{
  "source": "patent US11566018B2",
  "about": "“Treatment of infectious disease” (The Governors of the University of Alberta, priority 2018, dated 2023)",
  "key": {"MTT cell viability assay": {"test": "MTT cell viability assay", "format": "cell-based, human", "details": "human; 1HAEo- cells, dose response; read-out: CC50 (cytotoxic concentration at which cell viability is reduced by half)", "experimental": "(§1) MTT cell viability assay. 1HAEo-cells were grown in parallel with infected and compound treated cells in SAR and dose response experiments. 0.3 mg/mL of MTT ((3-(4,5-dimethylthiazol-2-yl)-2,5-diphenyl tetrazolium bromide)) in PBS was added to wells and incubated for 1 hour. Precipitate was dissolved in DMSO and absorbance was measured at 570 nm."}, "RSV-A2-GFP [1]": {"tested_on": "RSV-A2-GFP", "test": "Dose response experiments, progeny virus titered on HeLa cells", "format": "cell-based, human RSV strain A2", "details": "1HAEo- cells", "experimental": "Dose response experiments. 1HAEo-cells were infected as described, progeny virus collected, and tittered on HeLa cells in duplicate as described in SAR 2. During initial infection in 1HAEo-cells infectious media was replaced with media containing compounds at indicated concentrations at 2 hours post infection. Proportion of virus infected cells were quantified via indirect immunofluorescence assay.\nTo further assess the therapeutic potential of compounds identified in SAR 1 and SAR 2, a therapeutic index (TI) of each compound was identified (e.g., ratio of […]). […] Overall, the TI was increased from 4.1 for compound 5a to 12.3 with compound 5f."}, "1HAEo- cells": {"tested_on": "1HAEo- cells", "test": "MTT cell viability assay", "format": "cell-based, human", "details": "compounds at 10 μM, SAR screens", "experimental": "as §1"}, "ZIKV (Cambodia strain)": {"tested_on": "ZIKV (Cambodia strain)", "test": "Zika Virus antiviral screen (plaque assay)", "format": "cell-based", "details": "10 μM, progeny virus quantified on Vero cells by plaque assay, n=3", "experimental": "(§2) Cells and virus. Hep-2 cells were grown in Opti-MEM media supplemented with 2% fetal bovine serum (FBS), 1HAEo-cells were grown in MEM media supplemented with 10% FBS, and Hela cells grown in DMEM supplemented with 10% FBS. Infections were conducted using human RSV strain A2 or RSV-A2-GFP strain described previously [Hallak, L. K.; Spillmann, D.; Collins, P. L.; Peeples, M. E. J. Virol. 2000, 74, 10508-10513]. A549 cells and Vero cells were grown in DMEM supplemented with 10% FBS and used for experiments with ZIKV (Cambodia strain).\nZika Virus antiviral screen. Vero cells were pre-treated with bis(indole) compounds at 10 μM for 4 hours before infection with ZIKV at an MOI of 1. After 48 hour infection progeny ZIKV was collected, serial diluted over 6 logs, and transferred onto fresh Vero cell monolayers and incubated for 4 days. Vero cell monolayers were then fixed with 10% formaldehyde and stained with crystal violet; viral infection was quantified via plaque assay.\nZIKV constitutes a virus distinct from RSV with a markedly different intracellular replication strategy. Both viruses encode a viral RdRp essential to viral replication; however, the structure and function of RSV RdRp and ZIKV RdRp are quite different. […] RSV polymerase recognizes cis-acting ‘gene start’ and ‘gene end’ elements of the viral genome to produce subgenomic mRNAs enabling translation of viral proteins. […]"}, "[2]": {"target": "T1, RSV viral replication complex (Human respiratory syncytial virus A, UniProt P28887)", "T1 construct": "endogenous in cells; crude lysolecithin cell extract", "T1 sequence (P28887 whole entry)": "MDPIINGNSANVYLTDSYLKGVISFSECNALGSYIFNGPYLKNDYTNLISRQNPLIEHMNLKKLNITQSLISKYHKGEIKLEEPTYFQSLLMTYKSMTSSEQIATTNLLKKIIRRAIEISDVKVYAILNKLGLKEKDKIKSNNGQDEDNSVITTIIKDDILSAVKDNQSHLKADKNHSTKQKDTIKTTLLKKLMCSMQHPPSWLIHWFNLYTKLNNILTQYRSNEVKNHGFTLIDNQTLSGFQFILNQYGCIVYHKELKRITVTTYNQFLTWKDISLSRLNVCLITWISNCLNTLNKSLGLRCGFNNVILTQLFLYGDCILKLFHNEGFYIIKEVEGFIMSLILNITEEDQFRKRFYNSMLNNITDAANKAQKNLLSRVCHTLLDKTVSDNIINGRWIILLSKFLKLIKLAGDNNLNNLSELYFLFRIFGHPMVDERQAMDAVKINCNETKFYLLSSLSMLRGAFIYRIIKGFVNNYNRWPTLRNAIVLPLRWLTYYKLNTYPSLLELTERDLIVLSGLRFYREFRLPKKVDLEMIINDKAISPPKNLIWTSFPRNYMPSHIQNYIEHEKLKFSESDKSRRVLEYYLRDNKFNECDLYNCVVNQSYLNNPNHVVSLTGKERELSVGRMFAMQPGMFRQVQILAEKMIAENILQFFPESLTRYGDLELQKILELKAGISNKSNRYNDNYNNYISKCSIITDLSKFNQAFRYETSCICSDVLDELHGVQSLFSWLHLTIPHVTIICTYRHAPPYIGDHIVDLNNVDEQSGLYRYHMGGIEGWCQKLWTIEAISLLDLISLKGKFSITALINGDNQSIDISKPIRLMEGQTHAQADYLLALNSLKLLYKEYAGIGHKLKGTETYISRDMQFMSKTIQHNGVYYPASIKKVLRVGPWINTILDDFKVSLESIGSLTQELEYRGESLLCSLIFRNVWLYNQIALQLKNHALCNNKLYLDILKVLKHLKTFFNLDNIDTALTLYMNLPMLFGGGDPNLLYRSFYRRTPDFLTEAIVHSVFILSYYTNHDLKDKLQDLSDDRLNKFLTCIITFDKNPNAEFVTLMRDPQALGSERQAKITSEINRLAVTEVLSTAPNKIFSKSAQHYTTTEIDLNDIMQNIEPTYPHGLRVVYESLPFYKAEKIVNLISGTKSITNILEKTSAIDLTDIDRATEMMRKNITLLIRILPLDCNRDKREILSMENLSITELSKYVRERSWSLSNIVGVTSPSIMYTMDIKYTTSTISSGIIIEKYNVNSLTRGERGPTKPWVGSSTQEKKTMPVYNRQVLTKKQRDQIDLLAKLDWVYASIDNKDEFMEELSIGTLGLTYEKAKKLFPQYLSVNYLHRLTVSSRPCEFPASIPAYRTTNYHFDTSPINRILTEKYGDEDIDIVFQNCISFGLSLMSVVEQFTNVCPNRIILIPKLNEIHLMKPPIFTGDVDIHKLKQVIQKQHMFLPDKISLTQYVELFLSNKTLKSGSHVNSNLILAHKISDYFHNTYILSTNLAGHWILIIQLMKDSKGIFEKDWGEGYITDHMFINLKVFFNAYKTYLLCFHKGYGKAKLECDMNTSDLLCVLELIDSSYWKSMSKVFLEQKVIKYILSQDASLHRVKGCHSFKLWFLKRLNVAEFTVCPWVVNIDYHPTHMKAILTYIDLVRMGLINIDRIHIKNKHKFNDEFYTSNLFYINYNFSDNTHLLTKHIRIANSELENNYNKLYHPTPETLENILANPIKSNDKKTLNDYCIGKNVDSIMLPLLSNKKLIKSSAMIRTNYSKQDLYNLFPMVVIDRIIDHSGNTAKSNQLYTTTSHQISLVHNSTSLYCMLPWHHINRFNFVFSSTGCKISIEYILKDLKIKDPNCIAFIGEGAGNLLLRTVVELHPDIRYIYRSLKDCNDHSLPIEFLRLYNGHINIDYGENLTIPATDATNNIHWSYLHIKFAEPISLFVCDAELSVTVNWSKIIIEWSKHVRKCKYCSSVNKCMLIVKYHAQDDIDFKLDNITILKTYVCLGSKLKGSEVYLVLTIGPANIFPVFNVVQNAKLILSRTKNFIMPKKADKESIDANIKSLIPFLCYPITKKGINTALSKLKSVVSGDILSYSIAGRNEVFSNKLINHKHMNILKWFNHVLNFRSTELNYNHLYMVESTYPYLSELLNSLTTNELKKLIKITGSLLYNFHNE", "T1 sequence (P03421 whole entry, further chain)": "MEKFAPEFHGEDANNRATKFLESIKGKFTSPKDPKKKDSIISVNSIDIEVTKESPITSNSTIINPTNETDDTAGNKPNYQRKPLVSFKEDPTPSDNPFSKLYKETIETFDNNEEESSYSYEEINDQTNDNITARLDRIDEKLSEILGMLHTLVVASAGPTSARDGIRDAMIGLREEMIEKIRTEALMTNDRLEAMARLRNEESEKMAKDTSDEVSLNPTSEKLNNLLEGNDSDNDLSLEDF", "test": "Cell extract-based in vitro inhibition of viral transcription", "format": "biochemical, RSV A2"}, "RSV-A2-GFP [3]": {"tested_on": "RSV-A2-GFP", "test": "Structure activity relationship screens of antiviral activity (SAR 1/SAR 2); progeny virus by indirect immunofluorescence", "format": "cell-based, human RSV strain A2", "details": "compounds at 10 μM, 1HAEo- cells, progeny virus on HeLa indicator cells", "experimental": "as §2\nStructure activity relationship screens of antiviral activity. 1HAEo-cells were seeded at 80% confluency and incubated overnight. In SAR1 cells were preincubated with compounds for one hour at 20 μM prior to infection, followed by dilution to 10 μM and infection with RSV-A2-GFP at an MOI of 1 for 2 hours. In SAR2 1HAEo-cells were infected with RSV-A2-GFP at an MOI of 0.5 for 2 hours without pre-incubation with compounds. At 2 hours post infection, infectious media was removed from wells to prevent carry over of infecting virus into progeny collections. Fresh media containing compounds at 10 μM was added for remainder of 48 hour incubation. […]\nProgeny virus quantification via indirect immunofluorescence. […] Total cells (identified by DAPI staining) and infected cells were counted via the Operetta high content imaging system at 20x objective magnification. […]"}, "RSV-GFP-A2": {"tested_on": "RSV-GFP-A2", "test": "Mutant escape assay (serial passage)", "format": "cell-based, human RSV strain A2", "details": "14 serial passages over five weeks, 1HAEo- cells", "experimental": "Mutant escape assay. 1HAEo-cells were infected with RSV-GFP-A2 at an initial MOI of 0.1 and serial passaged over incubation periods of 48-72 hours. Samples were collected during passaging and stored in liquid nitrogen for tittering via indirect immunofluorescence assay. Ongoing low level viral infection during passaging was confirmed by identification of green fluorescence from GFP produced by the RSV-GFP in infected cells.\nAn established challenge to development of antiviral pharmaceuticals is the evolution of antiviral resistance. This is pronounced for viruses with RNA genome due to an inherent error-prone process of RNA-dependent RNA polymerase replication of a viral genome. Error prone replication results in a high mutation rate of RNA viruses that leads to development of antiviral resistance. As such, development of resistant mutants to compounds 5a and 5f was undertaken, as the site of mutations could provide further insights into the nature of the viral target."}},
  "data": [
    {"smiles": "COC(=O)C1(c2c(-c3ccc(OC)cc3)[nH]c3ccccc23)Nc2cc(Cl)ccc2C1=O", "note": "(stereo not shown) [Compound 5b]", "values": [
      {"measurement": "CC50", "setting": "MTT cell viability assay", "value": 59.2, "unit": "µM"}
    ]},
    {"smiles": "COC(=O)C1(c2cn(C)c3ccccc23)Nc2cc(Cl)ccc2C1=O", "note": "(stereo not shown) [Compound 2p]", "values": [
      {"measurement": "viral replication at concentrations tolerated by the host cell", "setting": "RSV-A2-GFP [1]", "value": "viral replication was not diminished at compound concentrations tolerated by the host cell"},
      {"measurement": "cytotoxicity (cell viability)", "setting": "1HAEo- cells", "value": "demonstrated cytotoxicity in SAR 1"},
      {"measurement": "CC50", "setting": "MTT cell viability assay", "value": 22.8, "unit": "µM"}
    ]},
    {"smiles": "COC(=O)C1(c2c(-c3ccccc3)[nH]c3ccccc23)Nc2cc(Cl)ccc2C1=O", "note": "(stereo not shown) [Compound 5a]", "values": [
      {"measurement": "viral replication at concentrations tolerated by the host cell", "setting": "RSV-A2-GFP [1]", "value": "consistently inhibited viral replication at concentrations tolerated by the host cell"},
      {"measurement": "inhibition of ZIKV infection", "setting": "ZIKV (Cambodia strain)", "value": "Significant inhibition"},
      {"measurement": "cytotoxicity (cell viability)", "setting": "1HAEo- cells", "value": "no cytotoxicity"},
      {"measurement": "CC50", "setting": "MTT cell viability assay", "value": 42.5, "unit": "µM"},
      {"measurement": "viral transcription from the RSV replication complex", "setting": "[2]", "value": "Decreasing viral transcription from the RSV replication complex was observed in a dose dependent manner"},
      {"measurement": "antiviral activity (inhibition of RSV infection)", "setting": "RSV-A2-GFP [3]", "value": "comparable to that of the known antiviral guanosine-analogue drug ribavirin"},
      {"measurement": "development of resistant virus", "setting": "RSV-GFP-A2", "value": "did not result in the development of viruses resistant to either compound"}
    ]},
    {"smiles": "COC(=O)C1(c2c(-c3ccc(OC)cc3)[nH]c3ccccc23)Nc2cc(Br)ccc2C1=O", "note": "(stereo not shown) [Compound 5f]", "values": [
      {"measurement": "CC50", "setting": "MTT cell viability assay", "value": 93.5, "unit": "µM"},
      {"measurement": "development of resistant virus", "setting": "RSV-GFP-A2", "value": "did not result in the development of viruses resistant to either compound"}
    ]}
  ]
}
